Among the data in US3978129A, “Alkenyl- and alkanylamines” (A. H. Robins Company, Incorporated, priority 1972, dated 1976) are ED50 values, retold here.

What is called ED50 is the midpoint of the dose-response relation. A higher ED50 goes with weaker potency.

Where a name gives a salt, the structure may show the parent alone.

The test system of this experiment is depressant effects of tetrabenazine. Kind of experiment: Blocking the depressant effects induced in mice by intravenous tetrabenazine (modified Englehardt procedure, increased tetrabenazine dosage). It is filed as in vivo. As to conditions: Mus musculus, ip, compounds I.P. As for the experimental part: The compounds were administered to mice intraperitoneally and the effectiveness of the compounds in blocking the depressant effects which are induced in mice by intravenous administration of 2-oxo-3-isobutyl-9,10-di-methoxy-1,2,3,4,6,7-hexahydro-11-bh-benzo[a]quinolizine (tetrabenazine was determined. The procedure used was a modification of that given by Englehardt, E. L. et al, J. Med. Chem. 11 (2) : 325(1968) wherein tetrabenazine dosage is increased over the Englehardt procedure. The ED50 of the compounds tested in blocking the depressant activity of tetrabenazine are given in Table I.
Turning to `COc1ccc(C(=CCCCl)CCN(C)C)cc1` [Example 6, 6-Chloro-N,N-dimethyl-3-(4-methoxyphenyl)-3-hexenylamine Hydrochloride], the 50% effect level (ED50) was put at a dose of 28.5 mg/kg.
Compound `CN(C)CCC(=CCCCl)c1cccc(C(F)(F)F)c1` [Example 7, 6-Chloro-N,N-dimethyl-3-(3-trifluoromethylphenyl)-3-hexenylamine Oxalate] showed an ED50 of 15.5 mg/kg.
In turn, `CN(C)CCCC(=CCCCl)c1ccccc1` [Example 4, 7-Chloro-N,N-dimethyl-4-phenyl-4-heptenylamine Oxalate] displayed an ED50 of 20 mg/kg.
Consider `CN(C)CCC(=CCCBr)c1ccccc1` [Example 3, 6-Bromo-N,N-dimethyl-N,N-dimethyl-3-hexenylamine Hydrobromide], for which the ED50 is 1.9 mg/kg.
The compound `CN(C)CCC(=CCCCl)c1ccccc1` [Example 1, 6-Chloro-N,N-dimethyl-3-phenyl-3-hexenylamine Hydrochloride] displayed an ED50 of 2.5 mg/kg.
Take `CN(C)CCC(CCCCl)c1ccccc1` (centres unmarked) [Example 8, 6-Chloro-N,N-dimethyl-3-phenylhexylamine Hydrochloride]: the 50% effect level (ED50) was put at a dose of 3.6 mg/kg.
The compound `CN(C)CC=C(CCCBr)c1ccccc1` [Example 2, 6-Bromo-N,N-dimethyl-3-phenyl-2-hexenylamine Hydrobromide] displayed an ED50 of 0.5 mg/kg.
For `CN(C)CCC=C(CCCCl)c1ccccc1` [Example 5, 7-Chloro-N,N-dimethyl-4-phenyl-3-heptenylamine Oxalate], the 50% effect level (ED50) was put at a dose of 10 mg/kg.
